Results as given in publication PMC7254386, “Antibacterial PEGylated Solid Lipid Microparticles for Cosmeceutical Purpose: Formulation, Characterization, and Efficacy Evaluation” (Materials, 2020).

Experiments:
[1] = RSV dissolution in different liquid lipophilic excipients; format: physicochemical
Text: Lipophilic excipients must have peculiar features from a physicochemical perspective (i.e., solid at room temperature, chemically inert, high capacity to incorporate drugs, and capable of protecting the latter from physicochemical degradation phenomena) and a biological point of view (i.e., biocompatible, neither carcinogenic or teratogens nor allergenic, and poorly oxidizable) to use them for generating both pharmaceutical and cosmetic formulations. Here, 1-Hexadecanol (EXA) as non-toxic, biocompatible, biodegradable long-chain fatty alcohol was chosen as a solid lipid, as its surfactant characteristic allows this excipient to behave as an emulsifier agent, avoiding the need for further surfactant addition usually required for SLMs preparation using melt dispersion method. In addition, EXA was shown a certain effectiveness in the inhibition of S. aureus growth.

[2] = Preliminary RSV solubility tests in buffer solutions; format: physicochemical; conditions: 32 °C, mean ± SE (n = 3)
Description: […] […] The suspension was kept in a thermostatic water bath (Heidolph MR3001K Hotplate Stirrer with Heidolph EXT3001 Temperature Probe, Heidolph Instruments, Schwabach, Germany) at 32 °C and stirred for 120 min. The samples were then centrifuged for 15 min at 15.000 rpm (mySPIN™ 12 Mini Centrifuge, Thermo Fisher Scientific, Waltham, MA, USA), to remove any precipitate. The supernatant was collected, diluted in methanol, and quantified by a UV-Vis spectrophotometer. The experiments were performed in triplicate.

[3] = parameters: method as in PMID 28659908; conditions: cited from earlier work
S. aureus = conditions: LB-agar as growth medium; cited from earlier work

Oc1ccc(/C=C/c2cc(O)cc(O)c2)cc1 [RSV, 3,4′, 5-trihydroxy-trans-stilbene]
RSV dissolution (appearance) ([1]; Gelucire 62/05, RSV 5% w/w): Opalescent | RSV dissolution (appearance) ([1]; Gelucire 62/05, RSV 10% w/w): Opalescent | RSV dissolution (appearance) ([1]; Gelucire 62/05, RSV 15% w/w): Opalescent | RSV dissolution (appearance) ([1]; Glyceryl Monostearate, RSV 5% w/w): Opalescent | RSV dissolution (appearance) ([1]; Glyceryl Monostearate, RSV 10% w/w): Opalescent | RSV dissolution (appearance) ([1]; Glyceryl Monostearate, RSV 15% w/w): Opalescent | RSV dissolution (appearance) ([1]; Isostearyl Isostearate, RSV 5% w/w): Opalescent | RSV dissolution (appearance) ([1]; Isostearyl Isostearate, RSV 10% w/w): Opalescent | RSV dissolution (appearance) ([1]; Isostearyl Isostearate, RSV 15% w/w): Opalescent | RSV dissolution (appearance) ([1]; Labrafil M-1944, RSV 5% w/w): Opalescent | RSV dissolution (appearance) ([1]; Labrafil M-1944, RSV 10% w/w): Opalescent | RSV dissolution (appearance) ([1]; Labrafil M-1944, RSV 15% w/w): Opalescent | RSV dissolution (appearance) ([1]; Labrafil M-2130, RSV 5% w/w): Opalescent | RSV dissolution (appearance) ([1]; Labrafil M-2130, RSV 10% w/w): Opalescent | RSV dissolution (appearance) ([1]; Labrafil M-2130, RSV 15% w/w): Opalescent | RSV dissolution (appearance) ([1]; Labrasol, RSV 5% w/w): Clear | RSV dissolution (appearance) ([1]; Labrasol, RSV 10% w/w): Clear | RSV dissolution (appearance) ([1]; Labrasol, RSV 15% w/w): Slightly Opalescent | RSV dissolution (appearance) ([1]; Soy Lecithin, RSV 5% w/w): Opalescent | RSV dissolution (appearance) ([1]; Soy Lecithin, RSV 10% w/w): Opalescent | RSV dissolution (appearance) ([1]; Soy Lecithin, RSV 15% w/w): Opalescent | RSV dissolution (appearance) ([1]; Tefose 1500, RSV 10% w/w): Slightly Opalescent | RSV dissolution (appearance) ([1]; Tefose 1500, RSV 15% w/w): Opalescent | amount of RSV solubilized by Labrasol ([1]; liquid lipid Labrasol): up to 10 % w/w | solubility at 120 min ([2]; PBS buffer solution with BSA 5% w/v, pH 7.4, thermodynamic from solid, PBS + BSA 5%): 442 ± 35 µg/mL | solubility at 120 min ([2]; PBS buffer solution with DMSO 10% v/v, pH 7.4, aqueous with cosolvent or surfactant or cyclodextrin, thermodynamic from solid, PBS + DMSO 10%): 194 ± 10 µg/mL | solubility at 120 min ([2]; PBS buffer solution with α-CD 0.5% w/v, pH 7.4, aqueous with cosolvent or surfactant or cyclodextrin, thermodynamic from solid, PBS + α-CD 0.5%): 153 ± 8 µg/mL | solubility at 120 min ([2]; PBS buffer solution with β-CD 2% w/v, pH 7.4, aqueous with cosolvent or surfactant or cyclodextrin, thermodynamic from solid, PBS + β-CD 2%): 886 ± 11 µg/mL | solubility at 120 min ([2]; citrate buffer solution with β-CD 2% w/v, aqueous with cosolvent or surfactant or cyclodextrin, thermodynamic from solid, Citrate buffer (pH 6.2) + β-CD 2%): 803 ± 3 µg/mL | partition coefficient (LogP) [3]: 3.09 | Minimal Inhibitory Concentration (MIC) (S. aureus): 1000 µg/mL
